From ChEMBL document CHEMBL4396872, “Pharmacokinetics-Driven Optimization of 4(3 H)-Pyrimidinones as Phosphodiesterase Type 5 Inhibitors Leading to TPN171, a Clinical Candidate for the Treatment of Pulmonary Arterial Hypertension” (J Med Chem, 2019)
Calls of active or inactive are those of the source. The calls are words filed in the database; no cut-off is given here.

Legend:
[1] = biological target: T1, cGMP-specific 3',5'-cyclic phosphodiesterase (Homo sapiens, UniProt O76074); assay: Inhibition of N-terminal GST-tagged human PDE5A1 expressed in baculovirus infected sf9 cells using [3H]cGMP as substrate measured after 30 mins by scintillation proximity assay
Homo sapiens = organism: Homo sapiens; assay: Selectivity ratio of IC50 for N-terminal GST-tagged human PDE6C to IC50 for N-terminal GST-tagged human PDE5A1
[2] = AUC (0 to infinity) in Beagle dog at 0.5 mg/kg, po measured up to 24 hrs by LC-MS/MS analysis; format: ADME, organism-based, Canis lupus familiaris; design: dose 0.5 mg/kg, time infinity, route oral; details: in vivo
Rattus norvegicus [3] = assay: […] activity in MCT-induced pulmonary arterial hypertension Sprague-Dawley rat model assessed as reduction in mean pulmonary artery pressure at 1 mg/kg administered once daily for 21 days starting from 21 days post-MCT challenge by right cardiac catheter method; format: functional, organism-based
Phosphodiesterase 1 = Phosphodiesterase 1 (Homo sapiens, UniProt P54750+Q01064+Q14123); assay: Inhibition of N-terminal GST-tagged human PDE1 expressed in baculovirus infected sf9 cells using [3H]cAMP as substrate measured after 30 mins by scintillation proximity assay
[4] = AUC (0 to infinity) in Sprague-Dawley rat at 1 mg/kg, iv measured up to 24 hrs by LC-MS/MS analysis; format: ADME, organism-based; design: dose 1 mg/kg, time infinity, route intravenous; details: in vivo
[5] = Half-life in Beagle dog at 0.5 mg/kg, iv measured up to 24 hrs by LC-MS/MS analysis; format: ADME, organism-based, Canis lupus familiaris; details: in vivo
[6] = Volume of distribution at steady state in Beagle dog at 0.5 mg/kg, iv measured up to 24 hrs by LC-MS/MS analysis; format: ADME, organism-based, Canis lupus familiaris; details: in vivo, read-out: Vdss
[7] = MRT in Beagle dog at 0.5 mg/kg, po measured up to 24 hrs by LC-MS/MS analysis; format: ADME, organism-based, Canis lupus familiaris; details: in vivo
[8] = Metabolic stability in human liver microsomes assessed as parent compound remaining at 1 uM in presence of NADPH after 30 mins by LC-MS/MS analysis; format: ADME, Microsome; details: read-out: Stability
[9] = AUC (0 to t) in Sprague-Dawley rat at 1 mg/kg, iv measured up to 24 hrs by LC-MS/MS analysis; format: ADME, organism-based; design: time < 24 hr, dose 1 mg/kg, route intravenous; details: in vivo
[10] = biological target: T1, cGMP-specific 3',5'-cyclic phosphodiesterase
Rattus norvegicus [11] = assay: Antihypertensive activity in spontaneously hypertensive rat assessed as reduction in mean arterial pressure at 20 mg/kg administered via single gavage measured up to 24 hrs; format: functional, organism-based
Rattus norvegicus [12] = assay: […] activity in MCT-induced pulmonary arterial hypertension Sprague-Dawley rat model assessed as reduction in mean pulmonary artery pressure at 100 mg/kg administered once daily for 21 days starting from 21 days post-MCT challenge by right cardiac catheter method; format: functional, organism-based
[13] = MRT in Sprague-Dawley rat at 1 mg/kg, iv measured up to 24 hrs by LC-MS/MS analysis; format: ADME, organism-based; details: in vivo
[14] = Cmax in Sprague-Dawley rat at 1 mg/kg, po measured up to 24 hrs by LC-MS/MS analysis; format: ADME, organism-based; design: dose 1 mg/kg, route oral; details: in vivo
[15] = Volume of distribution at steady state in Sprague-Dawley rat at 1 mg/kg, iv measured up to 24 hrs by LC-MS/MS analysis; format: ADME, organism-based; details: in vivo, read-out: Vdss
Rattus norvegicus [16] = assay: Antihypertensive activity in spontaneously hypertensive rat assessed as reduction in mean arterial pressure at 20 mg/kg administered via single gavage and measured at 2 hrs; format: functional, organism-based
[17] = AUC (0 to t) in Beagle dog at 0.5 mg/kg, po measured up to 24 hrs by LC-MS/MS analysis; format: ADME, organism-based, Canis lupus familiaris; design: time < 24 hr, dose 0.5 mg/kg, route oral; details: in vivo
[18] = Tmax in Sprague-Dawley rat at 1 mg/kg, po measured up to 24 hrs by LC-MS/MS analysis; format: ADME, organism-based; details: in vivo
[19] = Cmax in Beagle dog at 0.5 mg/kg, po measured up to 24 hrs by LC-MS/MS analysis; format: ADME, organism-based, Canis lupus familiaris; design: dose 0.5 mg/kg, route oral; details: in vivo
[20] = MRT in Sprague-Dawley rat at 1 mg/kg, po measured up to 24 hrs by LC-MS/MS analysis; format: ADME, organism-based; details: in vivo
[21] = Half-life in Sprague-Dawley rat at 1 mg/kg, iv measured up to 24 hrs by LC-MS/MS analysis; format: ADME, organism-based; details: in vivo
[22] = Tmax in Beagle dog at 0.5 mg/kg, po measured up to 24 hrs by LC-MS/MS analysis; format: ADME, organism-based, Canis lupus familiaris; details: in vivo
[23] = Clearance in Sprague-Dawley rat at 1 mg/kg, iv measured up to 24 hrs by LC-MS/MS analysis; format: ADME, organism-based; details: in vivo
[24] = biological target: Dual 3',5'-cyclic-AMP and -GMP phosphodiesterase 11A (Homo sapiens, UniProt Q9HCR9); assay: Inhibition of N-terminal GST-tagged human PDE11A4 expressed in baculovirus infected sf9 cells using [3H]cGMP as substrate measured after 30 mins by scintillation proximity assay
Rattus norvegicus [25] = assay: Antihypertensive activity in spontaneously hypertensive rat assessed as reduction in mean arterial pressure at 20 mg/kg administered via single gavage and measured at 4 hrs; format: functional, organism-based
[26] = Terminal half life in human at 5 mg, po administered once daily measured under phase 1 clinical trials; format: ADME, organism-based; details: in vivo, read-out: beta t1/2 (converted)
[27] = Oral bioavailability Beagle dog at 0.5 mg/kg measured up to 24 hrs by LC-MS/MS analysis; format: ADME, organism-based, Canis lupus familiaris; details: in vivo
[28] = MRT in Beagle dog at 0.5 mg/kg, iv measured up to 24 hrs by LC-MS/MS analysis; format: ADME, organism-based, Canis lupus familiaris; details: in vivo
[29] = Oral bioavailability in Sprague-Dawley rat at 1 mg/kg measured up to 24 hrs by LC-MS/MS analysis; format: ADME, organism-based; details: in vivo
Rattus norvegicus [30] = assay: […] activity in MCT-induced pulmonary arterial hypertension Sprague-Dawley rat model assessed as reduction in mean pulmonary artery pressure at 25 mg/kg administered once daily for 21 days starting from 21 days post-MCT challenge by right cardiac catheter method; format: functional, organism-based
[31] = biological target: Cone cGMP-specific 3',5'-cyclic phosphodiesterase subunit alpha' (Homo sapiens, UniProt P51160); assay: Inhibition of N-terminal GST-tagged human PDE6C expressed in baculovirus infected sf9 cells using [3H]cGMP as substrate measured after 30 mins by scintillation proximity assay
[32] = Clearance in Beagle dog at 0.5 mg/kg, iv measured up to 24 hrs by LC-MS/MS analysis; format: ADME, organism-based, Canis lupus familiaris; details: in vivo
[33] = AUC (0 to t) in Beagle dog at 0.5 mg/kg, iv measured up to 24 hrs by LC-MS/MS analysis; format: ADME, organism-based, Canis lupus familiaris; design: time < 24 hr, dose 0.5 mg/kg, route intravenous; details: in vivo
[34] = AUC (0 to infinity) in Sprague-Dawley rat at 1 mg/kg, po measured up to 24 hrs by LC-MS/MS analysis; format: ADME, organism-based; design: dose 1 mg/kg, route oral, time infinity; details: in vivo
[35] = biological target: T1, cGMP-specific 3',5'-cyclic phosphodiesterase; remark: listed apart in the source
[36] = Half-life in Beagle dog at 0.5 mg/kg, po measured up to 24 hrs by LC-MS/MS analysis; format: ADME, organism-based, Canis lupus familiaris; details: in vivo
[37] = Half-life in Sprague-Dawley rat at 1 mg/kg, po measured up to 24 hrs by LC-MS/MS analysis; format: ADME, organism-based; details: in vivo
[38] = AUC (0 to t) in Sprague-Dawley rat at 1 mg/kg, po measured up to 24 hrs by LC-MS/MS analysis; format: ADME, organism-based; design: time < 24 hr, dose 1 mg/kg, route oral; details: in vivo
[39] = biological target: T1, cGMP-specific 3',5'-cyclic phosphodiesterase; remark: listed apart in the source
[40] = AUC (0 to infinity) in Beagle dog at 0.5 mg/kg, iv measured up to 24 hrs by LC-MS/MS analysis; format: ADME, organism-based, Canis lupus familiaris; design: dose 0.5 mg/kg, time infinity, route intravenous; details: in vivo

Chain of Cone cGMP-specific 3',5'-cyclic phosphodiesterase subunit alpha' (P51160 whole entry): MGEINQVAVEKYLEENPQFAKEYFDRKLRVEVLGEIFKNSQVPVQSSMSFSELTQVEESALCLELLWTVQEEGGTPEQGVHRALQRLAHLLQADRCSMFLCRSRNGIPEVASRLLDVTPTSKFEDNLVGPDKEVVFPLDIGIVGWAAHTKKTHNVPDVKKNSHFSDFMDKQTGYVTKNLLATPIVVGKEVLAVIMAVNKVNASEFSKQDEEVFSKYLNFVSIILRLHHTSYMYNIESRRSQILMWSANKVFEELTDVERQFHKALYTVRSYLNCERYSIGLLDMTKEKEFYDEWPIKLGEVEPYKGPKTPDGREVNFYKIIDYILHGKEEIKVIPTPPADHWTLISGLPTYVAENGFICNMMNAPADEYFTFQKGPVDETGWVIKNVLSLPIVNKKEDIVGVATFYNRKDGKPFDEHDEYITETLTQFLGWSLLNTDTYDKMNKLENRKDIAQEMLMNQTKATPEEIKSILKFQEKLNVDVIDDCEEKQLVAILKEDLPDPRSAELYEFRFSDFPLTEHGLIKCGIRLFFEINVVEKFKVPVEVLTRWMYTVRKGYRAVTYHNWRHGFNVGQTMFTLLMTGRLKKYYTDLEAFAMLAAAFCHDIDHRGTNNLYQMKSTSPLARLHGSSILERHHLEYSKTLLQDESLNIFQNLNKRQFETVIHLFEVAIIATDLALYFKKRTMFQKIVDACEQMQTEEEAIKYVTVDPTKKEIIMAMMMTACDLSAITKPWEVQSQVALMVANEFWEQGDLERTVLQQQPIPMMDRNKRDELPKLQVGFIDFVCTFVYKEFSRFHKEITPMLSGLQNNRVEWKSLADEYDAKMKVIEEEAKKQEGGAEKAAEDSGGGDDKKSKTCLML
Chain of Dual 3',5'-cyclic-AMP and -GMP phosphodiesterase 11A (Q9HCR9 whole entry): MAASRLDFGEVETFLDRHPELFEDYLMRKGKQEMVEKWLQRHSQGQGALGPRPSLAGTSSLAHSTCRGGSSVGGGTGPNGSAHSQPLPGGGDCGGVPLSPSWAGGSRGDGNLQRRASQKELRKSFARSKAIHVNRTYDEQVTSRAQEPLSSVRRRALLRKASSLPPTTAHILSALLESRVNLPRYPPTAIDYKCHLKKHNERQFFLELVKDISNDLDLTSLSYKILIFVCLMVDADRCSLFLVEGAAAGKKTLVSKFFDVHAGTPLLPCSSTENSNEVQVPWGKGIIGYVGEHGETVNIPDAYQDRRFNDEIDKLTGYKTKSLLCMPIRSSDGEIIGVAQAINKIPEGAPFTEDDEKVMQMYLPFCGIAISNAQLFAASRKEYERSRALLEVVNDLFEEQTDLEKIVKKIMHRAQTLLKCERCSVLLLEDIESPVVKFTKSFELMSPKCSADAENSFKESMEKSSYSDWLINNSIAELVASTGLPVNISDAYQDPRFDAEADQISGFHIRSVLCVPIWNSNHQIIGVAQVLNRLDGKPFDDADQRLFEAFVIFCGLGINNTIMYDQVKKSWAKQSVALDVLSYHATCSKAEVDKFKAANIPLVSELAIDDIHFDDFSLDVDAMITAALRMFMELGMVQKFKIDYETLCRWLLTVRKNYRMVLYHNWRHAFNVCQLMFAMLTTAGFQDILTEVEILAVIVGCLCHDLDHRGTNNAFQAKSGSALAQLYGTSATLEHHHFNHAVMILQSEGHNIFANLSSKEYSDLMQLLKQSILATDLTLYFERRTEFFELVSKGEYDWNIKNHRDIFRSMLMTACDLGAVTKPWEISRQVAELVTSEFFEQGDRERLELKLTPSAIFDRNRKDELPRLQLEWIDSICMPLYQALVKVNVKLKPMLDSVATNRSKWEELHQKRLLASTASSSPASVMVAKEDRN

**Q.** For CCCOc1ccc(NC(=O)CN2CCCCC2)cc1-c1nc(CC)c(CC)c(=O)[nH]1, which IC50 [1] is on record?
**A.** 1.46 nM

**Q.** And the Ratio IC50 (Homo sapiens)?
**A.** 9

**Q.** Which results are given for CCCOc1ccc(NC(=O)CN2CCN(C)CC2)cc1-c1nc(CC)c(CC)c(=O)[nH]1?
**A.** AUC [2]: 514 ng·h/mL; Activity (Rattus norvegicus [3]): Active; IC50 (Phosphodiesterase 1): 3640 nM; AUC [4]: 412 ng·h/mL; half-life [5]: 4.5 h; Vd [6]: 3.83 L/kg; MRT [7]: 7.21 h; remaining at 0.5 h, 1 µM [8]: 91%; AUCt [9]: 403 ng·h/mL; deltaG [10]: -9.81 kcal/mol; Activity (Rattus norvegicus [11]): Active; Activity (Rattus norvegicus [12]): Active; MRT [13]: 2.22 h; Cmax [14]: 43.9 ng/mL; Vd [15]: 4.97 L/kg; Activity (Rattus norvegicus [16]): Active; AUCt [17]: 495 ng·h/mL; Tmax [18]: 2.8 h; Cmax [19]: 66.5 ng/mL; MRT [20]: 5.56 h; half-life [21]: 2.4 h; Tmax [22]: 1.9 h; clearance [23]: 37.7 mL/min/kg; IC50 [24]: 998 nM; Activity (Rattus norvegicus [25]): Active; half-life [26]: 10.9 h; bioavailability [27]: 67%; MRT [28]: 6.07 h; bioavailability [29]: 66.4%; Activity (Rattus norvegicus [30]): Active; IC50 [31]: 19.8 nM; clearance [32]: 10.8 mL/min/kg; AUCt [33]: 752 ng·h/mL; AUC [34]: 284 ng·h/mL; deltaH [35]: -21.5 kcal/mol; half-life [36]: 4.89 h; half-life [37]: 2.82 h; AUCt [38]: 268 ng·h/mL; -TdeltaS [39]: 11.7 kcal/mol; AUC [40]: 773 ng·h/mL

**Q.** With CCCOc1ccc(NC(=O)CCCNC(C)=O)cc1-c1nc(CC)c(CC)c(=O)[nH]1 as the compound, how does the Ratio IC50 (Homo sapiens) read?
**A.** 7

**Q.** For CCCOc1ccc(S(=O)(=O)N2CCN(C)CC2)cc1-c1nc(CC)c(CC)c(=O)[nH]1, which remaining at 0.5 h, 1 µM [8] is on record?
**A.** 29%

**Q.** What does the source list for CCCOc1ccc(NC(=O)[C@@H]2CCCN2C(C)=O)cc1-c1nc(CC)c(CC)c(=O)[nH]1?
**A.** IC50 [1]: 0.54 nM; Ratio IC50 (Homo sapiens): 10

**Q.** For CCCOc1ccc(NC(=O)N2CCCC2)cc1-c1nc(CC)c(CC)c(=O)[nH]1, which Ratio IC50 (Homo sapiens) is on record?
**A.** 11

**Q.** Which Ratio IC50 (Homo sapiens) does the source give for CCCOc1ccc(NC(N)=O)cc1-c1nc(CC)c(CC)c(=O)[nH]1 here?
**A.** 17

**Q.** For CCCOc1ccc(NC(=O)C(N)=O)cc1-c1nc(CC)c(CC)c(=O)[nH]1, which Ratio IC50 (Homo sapiens) is on record?
**A.** 22

**Q.** Which Ratio IC50 (Homo sapiens) does the source give for CCCOc1ccc(NC(=O)CC)cc1-c1nc(CC)c(CC)c(=O)[nH]1 here?
**A.** 11

**Q.** What does the source list for CCCOc1ccc(NC(=O)C(=O)N2CCN(C)CC2)cc1-c1nc(CC)c(CC)c(=O)[nH]1?
**A.** IC50 [1]: 1.55 nM; Ratio IC50 (Homo sapiens): 17
